Each structure is given as a SMILES string. In brackets after ≈: the same amount, converted by molar mass.

The subject of one test is S. aureus AD3. Put plainly: MIC/MBC by broth micro dilution. Particulars: Staphylococcus aureus, S. aureus AD3 (clinical strain); for MIC: 37 °C, 24 h; for MBC: lowest concentration reducing viable counts by 99.9%. It counts as cell-based. Here is the method:
(§1) All the synthesised 1,2,3-triazole linked pleuromutilin analogues were screened for in vitro antibacterial activities against methicillin-resistant S. aureus (ATCC 43300), S. aureus (ATCC 29213), and two clinical strains of S. aureus (AD3 and 144, isolated from Guangdong Province, China). The MICs and MBCs of the synthesised pleuromutilin derivatives along with pleuromutilin and tiamulin used as the reference antibacterial drugs, were determined by the broth micro dilution methods according to the Clinical and Laboratory Standards Institute (CLSI)[18].
(§2) The MIC of these novel pleuromutilin derivatives against methicillin-resistant S. aureus (ATCC 43300), S. aureus (ATCC 29213), S. aureus (AD3) and S. aureus (144) were determined by using pleuromutilin and tiamulin as positive control. MIC values were determined by the broth micro dilution methods in accordance with the Clinical and Laboratory Standards Institute (2012). Stock solutions of these compounds were dissolved in methanol to make a stock solution with a concentration of 1280 µg/mL. The working solutions (640 µg/mL) were obtained by diluting stock solutions in sterile Mueller-Hinton (MH) broth. The bacterial solution and solutions of these compounds with a final concentration of 0.016–32 µg/mL were distributed into 96-well plates, with a total volume of 200 µL. Three parallel experiments for each compound concentration. The plates were incubated at 37 °C for 24 h.
(§3) MBC values were determined according to CLSI (2003) and previously report with slightly modification[18]^,[28]^,[31]. After obtaining the MIC results, the 96-well plates were incubated at 37 °C for 24 h. 100 µL of the bacterial solution from the wells with no visible growth was inoculated on MH agar plates. The MH agar plates were incubated at 37 °C for colony count. The MBC was determined as the lowest concentration of compound, which reduces the viable counts for 99.9%.

For a further test, the system named is S. aureus 144. Put plainly: MIC/MBC by broth micro dilution. It counts as cell-based. Particulars: Staphylococcus aureus, S. aureus 144 (clinical strain); for MIC: 37 °C, 24 h; for MBC: lowest concentration reducing viable counts by 99.9%. Here is the method: as §1, §2, §3
For another test, the system named is S. aureus ATCC 29213. The test can be described thus: MIC/MBC by broth micro dilution. It counts as cell-based. As to conditions: Staphylococcus aureus; for MIC: ATCC29213, 37 °C, 24 h; for MBC: ATCC29213, lowest concentration reducing viable counts by 99.9%. Here is the method:
as §1, §2, §3

In a further test the test system is MRSA ATCC 43300. The test can be described thus: MIC/MBC by broth micro dilution. Format: cell-based, methicillin-resistant S. aureus. As to conditions: Staphylococcus aureus; for MIC: 37 °C, 24 h, read-out: MIC; for MBC: lowest concentration reducing viable counts by 99.9%. Here is the method:
as §1, §2, §3

A further test has as its target 50S ribosome. The test can be described thus: SPR binding studies. More on the design: species or system S. aureus. As to conditions: 4 °C; for Kd: PBST pH 7.4, KD = Kd/Ka, read-out: KD (equilibrium dissociation constant); for Ka (association rate constant) / Kd (dissociation rate constant): PBST pH 7.4, compound immobilised, 50S ribosome 200-3200 nM. Here is the method: In order to gain some insight into the binding mode of the potent inhibitors, SPR experiments were performed. […] The response unit (RU) of surface resonance was compared to determine the different binding affinities between each compound and the 50S ribosome. The association rate constants (Ka) and dissociation rate constant (Kd) represent the rate of association and dissociation in the binding reaction, respectively. The equilibrium dissociation constant (KD) indicated the degree of dissociation of compounds and the 50S ribosome in the equilibrium state. Their binding curves during the experiment were shown in Figure 3, as well as the concentration gradient curves were shown in Figure SI 27–34.
SPR biosensing experiments were performed at 4 °C using the bScreen LB 991 Label-free Microarray System (Berthold Technologies, Germany) and the photo-cross-linker sensor chip. The BIODOT™ AD-1520 Array Printer (BIODOT Inc., USA) was used for printing samples and control on the chip surface. A UV Spectroirradiator 1020 (Amersham Life Science, USA) was used for the photo-cross-linking reaction quickly after the array print.
As described in the reference[32–34] with minor modifications, the ribosome of S. aureus were extracted and purified to obtain 50S ribosome. MRSA (ATCC 43300) was incubated overnight at 37 °C. The bacteria solution was inoculated into a new culture solution, and cells were collected at an OD600 = 1.5. The bacterial culture was centrifuged 3 times at 3,500 rpm using a TX-400 rotor at 4 °C for 30 min, and then the supernatant was discarded. Cells were washed twice with 10 mM Tris-HCl (pH = 7.5), and suspend the precipitate with buffer A (20 mM HEPES-HCl pH = 7.5, 100 mM NH4Cl, 21 mM Mg(OAc)2, 1 mM EDTA, 1 mM DTT). Cells were lysed by repeated (>3×) snap-freezing and thawing, then ultrasonic disintegration was performed. To remove cell debris, the crushed product was centrifuged at 20,000 rpm for 90 min at 4 °C.The lysate layered on 15 ml of a sucrose cushion (10 mM HEPES-HCl pH = 7.5, 500 mM KCl, 25 mM Mg(OAc)2, 1.1 M sucrose, 0.5 mM EDTA, 1 mM DTT) and centrifuged in the ultracentrifuge(Optima^TM TL 100) at 45,000 rpm using a type70Ti rotor at 4 °C for 15 h to obtain ribosomal particles. Pellet was resuspended in 3 ml of buffer E (10 mM HEPES-HCl pH = 7.5, 100 mM KCl, 1 mM Mg(OAc)2, 0.5 mM EDTA, 1 mM DTT), then layered on 9 ml of 7–30% sucrose gradient and ultracentrifuged at 17,100 rpm using a typeSW40Ti rotor at 4 °C for 15 h. The gradient was analysed on the AKTA explorer system. The fractions corresponding to 50S ribosome were collected and PEG 20000 was added to a final concentration of 4.5% w/v. Ribosomes were pelleted by centrifugation at 20,000 rpm for 12 min, the pellet was gently dissolved in 200 µL of storage buffer (10 mM HEPES-HCl pH = 7.5, 15 mM KCl, 60 mM NH4Cl, 10 mM Mg(OAc)2, 1 mM DTT) and then flash-frozen for storage at −80 °C.
Dilute these compounds to a concentration of 10 mM with DMSO as the stationary phase printing working solution. After that, the printing working solution was printed on the sensor chip by the array printer, and each sample was printed four times repeatedly. Four groups of positive control dots (12 rapamycin dots, 3 in each corner) were printed on the four corners of the sensor chip respectively. The sample dots were dried in vacuum, and the sensor chip was quickly transferred to the UV spectroirradiator for a photo-cross-linking reaction. Subsequently, the sensor chip was washed with DMF, methanol, and water for 15 min in turn, followed by blowing dry under nitrogen, and then assembled with Flowcell Cover.
The binding studies were performed with PBST running buffer (pH = 7.4, 0.1% Tween 20) at a constant flow rate of 0.5 µL/s in instrument. 50S Ribosome was diluted separately with PBST running buffer to 200 nM, 400 nM, 800 nM, 1600 nM and 3200 nM and injected consecutively for 600 s at associating stage, followed by running buffer for 360 s at each dissociating stage. […]

For the molecule `C=C[C@]1(C)C[C@@H](OC(=O)Cn2cc(CN3CCN(c4cccc(C)c4)CC3)nn2)[C@]2(C)[C@H](C)CC[C@]3(CCC(=O)[C@H]32)[C@@H](C)[C@@H]1O` [Compound 51, 22-(2-(4-(4-(m-Tolyl)-piperazin-1-yl)-methyl)-1H-1,2,3-triazol-1-yl)-22-deoxy pleuromutilin], in the test with S. aureus AD3, the MIC worked out at 2 µg/mL (≈ 3.24 µM) and the MBC turned out to be 4 µg/mL (≈ 6.47 µM). Moreover, in the test on S. aureus 144, inhibition of growth (MIC) required 4 µg/mL (≈ 6.47 µM) and the MBC is 8 µg/mL (≈ 12.9 µM). Further, in the test with S. aureus ATCC 29213, the lowest concentration to inhibit growth (MIC) was 2 µg/mL (≈ 3.24 µM) and the MBC came to 4 µg/mL (≈ 6.47 µM). In the test on MRSA ATCC 43300, the MIC was found to be 1 µg/mL (≈ 1.62 µM) and the MBC turned out to be 2 µg/mL (≈ 3.24 µM). For the same molecule, at 50S ribosome, the Kd turned out to be 8.66 µM, the “Ka (association rate constant)” value stood at 3800 M⁻¹ s⁻¹ and the “Kd (dissociation rate constant)” value was found to be 0.0329 s⁻¹.

In the test with S. aureus AD3, `C=C[C@]1(C)C[C@@H](OC(=O)Cn2cc(CN3CCN(c4cccc([N+](=O)[O-])c4)CC3)nn2)[C@]2(C)[C@H](C)CC[C@]3(CCC(=O)[C@H]32)[C@@H](C)[C@@H]1O` [Compound 63, 22-(2-(4-(4-(3-Nitrophenyl)-piperazin-1-yl)-methyl)-1H-1,2,3-triazol-1-yl)-22-deoxy pleuromutilin] yielded an MIC of 2 µg/mL (≈ 3.08 µM) and an MBC of 4 µg/mL (≈ 6.17 µM). Further, in the test with S. aureus 144, the MIC worked out at 4 µg/mL (≈ 6.17 µM) and the MBC came to 16 µg/mL (≈ 24.7 µM). In the test with S. aureus ATCC 29213, this molecule displayed an MIC of 4 µg/mL (≈ 6.17 µM) and an MBC of 8 µg/mL (≈ 12.3 µM). Moreover, in the test on MRSA ATCC 43300, the MIC was found to be 2 µg/mL (≈ 3.08 µM) and the MBC was determined as 2 µg/mL (≈ 3.08 µM). Besides, at 50S ribosome, the Kd was 3.48 µM, the “Ka (association rate constant)” value stood at 992 M⁻¹ s⁻¹ and the “Kd (dissociation rate constant)” value is 0.00345 s⁻¹.

Consider `C=C[C@]1(C)C[C@@H](OC(=O)CSCCN(CC)CC)[C@]2(C)[C@H](C)CC[C@]3(CCC(=O)[C@H]32)[C@@H](C)[C@@H]1O` [Tiamulin, tiamulin, reference compound], for which, in the test with S. aureus AD3, the MIC was 1 µg/mL (≈ 2.03 µM) and the MBC worked out at 2 µg/mL (≈ 4.05 µM). Further, in the test with S. aureus 144, it took 1 µg/mL (≈ 2.03 µM) to inhibit growth (MIC) and the MBC came out at 2 µg/mL (≈ 4.05 µM). Also, in the test with S. aureus ATCC 29213, the minimum inhibitory concentration (MIC) stood at 0.5 µg/mL (≈ 1.01 µM) and the MBC was found to be 1 µg/mL (≈ 2.03 µM). Moreover, in the test on MRSA ATCC 43300, the MIC was determined as 0.5 µg/mL (≈ 1.01 µM) and the MBC is 1 µg/mL (≈ 2.03 µM). In addition, on 50S ribosome, the Kd is 0.0363 µM, the “Ka (association rate constant)” value is 122 M⁻¹ s⁻¹ and the “Kd (dissociation rate constant)” value was found to be 4.44e-06 s⁻¹.

As for `C=C[C@]1(C)C[C@@H](OC(=O)Cn2cc(CN3CCN(c4cccc(F)c4)CC3)nn2)[C@]2(C)[C@H](C)CC[C@]3(CCC(=O)[C@H]32)[C@@H](C)[C@@H]1O` [Compound 54, 22-(2-(4-(4-(3-Fluorophenyl)-piperazin-1-yl)-methyl)-1H-1,2,3-triazol-1-yl)-22-deoxy pleuromutilin], the MIC is 8 µg/mL (≈ 12.9 µM) in the test with S. aureus AD3, 8 µg/mL (≈ 12.9 µM) in the test on S. aureus 144, 8 µg/mL (≈ 12.9 µM) in the test with S. aureus ATCC 29213 and 4 µg/mL (≈ 6.43 µM) in the test with MRSA ATCC 43300. Further, the MBC in the test on S. aureus AD3 stood at 16 µg/mL (≈ 25.7 µM); against S. aureus 144 it was 16 µg/mL (≈ 25.7 µM); with S. aureus ATCC 29213, 8 µg/mL (≈ 12.9 µM); against MRSA ATCC 43300 it was 4 µg/mL (≈ 6.43 µM).

Consider `C=C[C@]1(C)C[C@@H](OC(=O)Cn2cc(CN3CCN(c4ccccc4F)CC3)nn2)[C@]2(C)[C@H](C)CC[C@]3(CCC(=O)[C@H]32)[C@@H](C)[C@@H]1O` [Compound 53, 22-(2-(4-(4-(2-Fluorophenyl)-piperazin-1-yl)-methyl)-1H-1,2,3-triazol-1-yl)-22-deoxy pleuromutilin], for which the MIC against S. aureus AD3 was determined as 4 µg/mL (≈ 6.43 µM); against S. aureus 144, 8 µg/mL (≈ 12.9 µM); in the test with S. aureus ATCC 29213, 4 µg/mL (≈ 6.43 µM); in the test with MRSA ATCC 43300, 2 µg/mL (≈ 3.22 µM). For the same molecule, the MBC in the test on S. aureus AD3 stood at 8 µg/mL (≈ 12.9 µM); in the test on S. aureus 144, 8 µg/mL (≈ 12.9 µM); in the test with S. aureus ATCC 29213 it was 8 µg/mL (≈ 12.9 µM); against MRSA ATCC 43300 it was 4 µg/mL (≈ 6.43 µM). Moreover, the Kd on 50S ribosome came to 51 µM. Also, the “Kd (dissociation rate constant)” value in the test with 50S ribosome amounted to 0.00403 s⁻¹.

The record behind these values is publication PMC8635623, “A click chemistry approach to pleuromutilin derivatives, evaluation of anti-MRSA activity and elucidation of binding mode by surface plasmon resonance and molecular docking” (Journal of Enzyme Inhibition and Medicinal Chemistry, 2021).
